# Reference: PubChem BioAssay (NCI)
#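 96-well plates; 48 h exposure; 5 concentrations. Endpoints by linear interpolation between flanking doses. Not reached: highest tested concentration assigned. GI50: concentration for 50% inhibition of growth. At the TGI there is no net growth.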
# How the values were obtained:
# Test in all cases: inhibition of tumour cell growth, NCI panel, 48 h
# [1] = test system: CAKI-1 renal
# [2] = test system: SNB-75 CNS
# [3] = test system: UACC-62 melanoma
# [4] = test system: NCI/ADR-RES ovarian
# [5] = test system: A549 NSCLC
# [6] = test system: NCI-H23 lung
# [7] = test system: SF-295 CNS
# [8] = test system: HCC-2998 colon
# [9] = test system: SF-268 CNS
# [10] = test system: NCI-H460 lung
# [11] = test system: OVCAR-8 ovarian
# [12] = test system: MDA-MB-231 breast
# [13] = test system: SK-MEL-2 melanoma
# [14] = test system: MCF7 breast
# [15] = test system: SF-539 CNS
# [16] = test system: A498 renal
# [17] = test system: K-562 leukemia
# [18] = test system: OVCAR-5 ovarian
# [19] = test system: MALME-3M melanoma
# [20] = test system: COLO 205 colon
# [21] = test system: SK-MEL-5 melanoma
# [22] = test system: PC-3 prostate
# [23] = test system: HT29 colon
# [24] = test system: HCT-15 colon
# [25] = test system: 786-0 renal
# [26] = test system: HS 578T breast
# [27] = test system: SNB-19 CNS
# [28] = test system: HOP-62 NSCLC
# [29] = test system: NCI-H522 lung
# [30] = test system: RXF 393 renal
# [31] = test system: KM12 colon
# [32] = test system: OVCAR-4 ovarian
# [33] = test system: HCT-116 colon
# [34] = test system: LOX IMVI melanoma
# [35] = test system: HL-60(TB) leukemia
# [36] = test system: SR leukemia
# [37] = test system: M14 melanoma
# [38] = test system: SK-OV-3 ovarian
# [39] = test system: OVCAR-3 ovarian
# [40] = test system: NCI-H226 lung
# [41] = test system: CCRF-CEM leukemia
# [42] = test system: UACC-257 melanoma
# [43] = test system: UO-31 renal
# [44] = test system: T-47D breast
# [45] = test system: ACHN renal
# [46] = test system: IGROV1 ovarian
# [47] = test system: BT-549 breast
# [48] = test system: U251 CNS
# [49] = test system: DU-145 prostate
# [50] = test system: SK-MEL-28 melanoma
# [51] = test system: MOLT-4 leukemia
# [52] = test system: HOP-92 NSCLC
# [53] = test system: SW-620 colon
# [54] = test system: SN12C renal
# [55] = test system: EKVX NSCLC
# [56] = test system: MDA-MB-468 breast
# [57] = test system: TK-10 renal
# [58] = test system: MDA-MB-435
# [59] = test system: RPMI-8226 leukemia
compound,measurement,setting,value
COc1ccc(CN2[C@@H](C(=O)NCc3ccc(C(=O)NO)cc3)Cc3c([nH]c4ccccc34)[C@@H]2C)cc1,GI50,[1],2.83 µM
same,TGI,[1],7.86 µM
same,GI50,[2],1.23 µM
same,TGI,[2],7.27 µM
same,GI50,[3],2.08 µM
same,TGI,[3],5.29 µM
same,GI50,[4],8.01 µM
same,TGI,[4],> 21 µM
same,GI50,[5],4.3 µM
same,TGI,[5],16.5 µM
same,GI50,[6],3.33 µM
same,TGI,[6],7.51 µM
same,GI50,[7],3.02 µM
same,TGI,[7],6.21 µM
same,GI50,[8],2.72 µM
same,TGI,[8],5.81 µM
same,GI50,[9],4.21 µM
same,TGI,[9],11.2 µM
same,GI50,[10],2.86 µM
same,TGI,[10],10.6 µM
same,GI50,[11],2.44 µM
same,TGI,[11],8.91 µM
same,GI50,[12],2.67 µM
same,TGI,[12],5.73 µM
same,GI50,[13],3.32 µM
same,TGI,[13],7.3 µM
same,GI50,[14],3.02 µM
same,TGI,[14],13.8 µM
same,GI50,[15],2.7 µM
same,TGI,[15],7.12 µM
same,GI50,[16],0.822 µM
same,TGI,[16],6.26 µM
same,GI50,[17],1.93 µM
same,TGI,[17],> 21 µM
same,GI50,[18],1.43 µM
same,TGI,[18],8.11 µM
same,GI50,[19],0.874 µM
same,TGI,[19],4.86 µM
same,GI50,[20],3.59 µM
same,TGI,[20],8.33 µM
same,GI50,[21],2.96 µM
same,TGI,[21],6.02 µM
same,GI50,[22],3.02 µM
same,TGI,[22],> 21 µM
same,GI50,[23],3.84 µM
same,TGI,[23],> 21 µM
same,GI50,[24],4.56 µM
same,TGI,[24],19.8 µM
same,GI50,[25],5.15 µM
same,TGI,[25],> 21 µM
same,GI50,[26],1.26 µM
same,TGI,[26],13 µM
same,GI50,[27],3.49 µM
same,TGI,[27],8.5 µM
same,GI50,[28],2.56 µM
same,TGI,[28],7.92 µM
same,GI50,[29],1.43 µM
same,TGI,[29],5.35 µM
same,GI50,[30],0.724 µM
same,TGI,[30],3.71 µM
same,GI50,[31],3.3 µM
same,TGI,[31],7.85 µM
same,GI50,[32],4.58 µM
same,TGI,[32],> 21 µM
same,GI50,[33],1.47 µM
same,TGI,[33],> 21 µM
same,GI50,[34],3.23 µM
same,TGI,[34],6.3 µM
same,GI50,[35],2.65 µM
same,TGI,[35],15.4 µM
same,GI50,[36],0.335 µM
same,TGI,[36],> 21 µM
same,GI50,[37],4.05 µM
same,TGI,[37],> 21 µM
same,GI50,[38],2.58 µM
same,TGI,[38],6.14 µM
same,GI50,[39],2.51 µM
same,TGI,[39],7.84 µM
same,GI50,[40],1.98 µM
same,TGI,[40],10.2 µM
same,GI50,[41],1.27 µM
same,TGI,[41],> 21 µM
same,GI50,[42],2.19 µM
same,TGI,[42],14.4 µM
same,GI50,[43],2.93 µM
same,TGI,[43],6.19 µM
same,GI50,[44],3.56 µM
same,TGI,[44],12.8 µM
same,GI50,[45],3.67 µM
same,TGI,[45],9.07 µM
same,GI50,[46],2.56 µM
same,TGI,[46],5.78 µM
same,GI50,[47],5.95 µM
same,TGI,[47],15.6 µM
same,GI50,[48],2.88 µM
same,TGI,[48],8.88 µM
same,GI50,[49],4.41 µM
same,TGI,[49],17.8 µM
same,GI50,[50],2.6 µM
same,TGI,[50],8.76 µM
same,GI50,[51],1.6 µM
same,TGI,[51],> 21 µM
same,GI50,[52],2.2 µM
same,TGI,[52],6.25 µM
same,GI50,[53],2.34 µM
same,TGI,[53],11.2 µM
same,GI50,[54],3.88 µM
same,TGI,[54],13 µM
same,GI50,[55],2.24 µM
same,TGI,[55],13.5 µM
same,GI50,[56],0.861 µM
same,TGI,[56],4.45 µM
same,GI50,[57],2.6 µM
same,TGI,[57],11.4 µM
same,GI50,[58],1.27 µM
same,TGI,[58],5.56 µM
same,GI50,[59],3.03 µM
same,TGI,[59],> 21 µM
